Experimental data published in paper PMC9435431, “Novel chemical entities inhibiting Mycobacterium tuberculosis growth identified by phenotypic high-throughput screening” (Scientific Reports, 2022).
In brackets after ≈: the same amount, converted by molar mass. Read-outs that look alike come from different tables or passages of the source.

What was measured:
[1] = test system: wild-type M. tuberculosis; assay: microbe, parasite or virus in culture; format: cell-based, Mycobacterium tuberculosis; settings: for MIC / IC90: Mycobacterium tuberculosis
M. tuberculosis H37Rv = assay: microbe, parasite or virus in culture; format: cell-based; settings: Mycobacterium tuberculosis, 120 h
in vitro [2] = format: cell-based; settings: human; for IC20: concentration for 20% inhibition of HepG2 cells, 72 h, n = 2
Experimental: HepG2 cells were seeded at 2000 cells per well in 384-well, black, clear bottom PDL coated plates in MEM medium supplemented with 10% FBS, 2 mM L-glutamine, 1 mM sodium pyruvate and incubated overnight at 37C, 5% CO2. Compounds were added and plates incubated for 72 h. Cell viability was measured using the CyQUANT® reagent and imaging on a ViewLux™ ultraHTS Microplate Imager. The IC20 and IC50 were calculated from dose response curves.

M. tuberculosis = assay: microbe, parasite or virus in culture; format: cell-based; settings: Mycobacterium tuberculosis, read-out: MIC on solid medium
in vitro [3] = format: in vitro ADME, human; settings: for CLint scaled at 0.5 µM: human, microsomes, pH 7.4, human Clint; for microsomal clearance / stability (in words): human microsomes
Experimental: Compounds (0.5 µM) were incubated with 0.25 mg/mL liver microsomal proteins at pH 7.4 at 37 °C. Reactions were initiated with […] and samples taken at 0, 5, 10, 15, 20 and 30 min. The reaction was stopped by addition of 95% ACN/5% MeOH containing an internal standard. Samples were combined in compound groups of six pre-sorted by mono molecular weight and analyzed by LC/MS/MS. The peak area ratios (analyte peak area/IS peak area) were converted to % remaining using the area ratio at time 0 as 100%. The. half-life (T ½) and intrinsic clearance (mCLint) were calculated.

[4] = Table 5, read-out: Wild-type MIC

| SMILES | inhibition at 20 µM (M. tuberculosis H37Rv; read-out: % Inhibition Run 1) [%] | inhibition at 20 µM (M. tuberculosis H37Rv; read-out: % Inhibition Run 2) [%] | MIC ([1]; read-out: MTB MIC) [µM] | IC20 at 72 h (in vitro [2]) [µM] | MIC ([1]; 120 h, read-out: MIC) [µM] | CLint scaled at 0.5 µM (in vitro [3]) [L/h/kg] | other results |
| --- | --- | --- | --- | --- | --- | --- | --- |
| c1ccc(-c2cncc(N3CC4CC5CC3CN(C5)C4)c2)cc1 (stereo not drawn) [AAP] | 99 | 97 | – | – | – | – | MIC ([1]; 120 h, read-out: MTB MIC): 23 µM (≈ 7.02 µg/mL); IC20 (in vitro [2]): 27 µM |
| CC(=O)n1cc(Nc2ccccc2O)c2ccccc21 [ACI-2] | 100 | 100 | 4.5 (≈ 1.2 µg/mL) | 30 | – | – | – |
| O=C(c1c(Cl)cccc1Cl)N1COCN(c2ccc(C(F)(F)F)cc2)C1=O [ACU-1] | 98 | 98 | 7.6 (≈ 3.19 µg/mL) | 65 | – | – | – |
| c1ccc(N2CCN(Cc3cnc4ccccc4n3)CC2)cc1 [AMQ-5] | 98 | 99 | 7.8 (≈ 2.37 µg/mL) | 2 | – | – | – |
| Clc1ccc(-c2nc(Cn3ccnc3)cs2)cc1 [AMT-1] | 98 | 96 | 35 (≈ 9.65 µg/mL) | 34 | – | – | – |
| CNc1cc(-c2ccccn2)nc(-c2ccccn2)n1 [APDP-1] | 99 | 100 | 10 (≈ 2.63 µg/mL) | 0.028 | – | – | IC90 [1]: 10 µM |
| O=S(=O)(Nc1ccccc1-c1nn[nH]n1)c1ccc(OC(F)(F)F)cc1 [APT] | 99 | 99 | 6.9 (≈ 2.66 µg/mL) | 0.47 | – | – | – |
| N#C/C(=C\NC1CCCCC1)c1nc2ccccc2[nH]1 [BCI-2] | 100 | 100 | 9.6 (≈ 2.56 µg/mL) | 0.85 | – | – | – |
| CCC(=O)Nc1nc(-c2nc3ccccc3oc2=O)cs1 [BOZ] | 99 | 100 | 4.8 (≈ 1.45 µg/mL) | 37 | – | – | – |
| Cc1cnc(-n2nnc3ccccc3c2=O)s1 [BTT] | 100 | 100 | 4.8 (≈ 1.17 µg/mL) | 37 | – | – | – |
| Nc1ccnc(Nc2ccccc2Nc2ccccc2)n1 [DAP] | 99 | 99 | 0.7 (≈ 0.194 µg/mL) | 0.83 | – | – | – |
| NCC(c1ccco1)S(=O)(=O)c1ccccc1 (stereo not drawn) [FAS] | 100 | 100 | 9.5 (≈ 2.39 µg/mL) | 2 | – | – | – |
| O=C(Nc1nc2ccccc2s1)NC1C2CC3CC(C2)CC1C3 (stereo not drawn) [HBU-1] | 100 | 100 | – | 8.2 | – | – | IC90 [1]: 4.2 µM; MIC ([1]; 120 h, read-out: MTB MIC): 4.2 µM (≈ 1.38 µg/mL) |
| CNC(=O)N(O)C1c2cccc(F)c2Oc2ccsc21 (stereo not drawn) [HDU-2] | 99 | 100 | 19 (≈ 5.59 µg/mL) | 42 | – | – | – |
| CCC1(N2CCC(c3ccccc3)CC2)CCCCC1 [Molecule 4PP-1, 1-(1-Ethyl-cyclohexyl)-4-phenyl-piperidine] | 100 | 99 | 6.3 (≈ 1.71 µg/mL) | – | 6.3 ± 2.7 (≈ 1.71 µg/mL) | – | IC90 [1]: 6.3 µM; MIC [1, 4]: 6.3 µM (≈ 1.71 µg/mL); MIC ([1]; read-out: MIC): 6.3 µM (≈ 1.71 µg/mL); IC20 (in vitro [2]): > 80 µM |
| O=C(O)C(F)(F)F.c1cc(C2CCN(CC3CCCCC3)CC2)ccn1 [Molecule 4PP-32, 4-[1-(Cyclohexylmethyl)-4-piperidyl]pyridine, 2,2,2-trifluoroacetic acid salt] | – | – | – | – | > 20 | – | anti-tubercular activity (in words) [1]: inactive; MIC (M. tuberculosis): 1.6 µM |
| COc1ccc(CCNC(=O)C2(c3ccccc3)CCC2)cc1Br [PCB-1, N-(3-bromo-4-methoxyphenethyl)-1-phenylcyclobutane-1-carboxamide] | 100 | 100 | 6.9 (≈ 2.68 µg/mL) | 33 | 6.9 ± 1.7 (≈ 2.68 µg/mL) | 79.7 | MIC ([1]; read-out: MIC): 6.9 µM (≈ 2.68 µg/mL) |
| O=C(NCCc1cccc(Br)c1)C1(c2ccc(F)cc2)CCC1 [PCB-19, N-(3-bromophenethyl)-1-(4-fluorophenyl)cyclobutane-1-carboxamide] | – | – | – | – | 2.3 ± 0.7 (≈ 0.865 µg/mL) | 235 | MIC [1, 4]: 2.3 µM (≈ 0.865 µg/mL); MIC (M. tuberculosis): 0.63 µM (≈ 0.237 µg/mL); microsomal clearance / stability (in words) (in vitro [3]): very poor microsomal stability |
| O=C(NCCc1cccc(Br)c1)C1(c2ccccc2F)CCC1 [PCB-20, N-(3-bromophenethyl)-1-(2-fluorophenyl)cyclobutane-1-carboxamide] | – | – | – | – | 5.5 ± 2.1 (≈ 2.07 µg/mL) | 263 | microsomal clearance / stability (in words) (in vitro [3]): very poor microsomal stability |

| SMILES | inhibition at 20 µM (M. tuberculosis H37Rv; read-out: % Inhibition Run 1) [%] | inhibition at 20 µM (M. tuberculosis H37Rv; read-out: % Inhibition Run 2) [%] | MIC ([1]; read-out: MTB MIC) [µM] | IC20 at 72 h (in vitro [2]) [µM] | MIC ([1]; 120 h, read-out: MIC) [µM] | CLint scaled at 0.5 µM (in vitro [3]) [L/h/kg] | other results |
| --- | --- | --- | --- | --- | --- | --- | --- |
| O=C(NCCc1cccc(Br)c1)C1(c2ccccc2Br)CCC1 [PCB-21, N-(3-bromophenethyl)-1-(2-bromophenyl)cyclobutane-1-carboxamide] | – | – | – | – | 2 ± 0.5 (≈ 0.874 µg/mL) | 813 | MIC [1, 4]: 2 µM (≈ 0.874 µg/mL); MIC (M. tuberculosis): 1.25 µM (≈ 0.546 µg/mL) |
| O=C(NCCc1cccc(Br)c1)C1(c2ccccc2C(F)(F)F)CCC1 [PCB-22, N-(3-bromophenethyl)-1-(2-(trifluoromethyl)phenyl)cyclobutane-1-carboxamide] | – | – | – | – | 5.7 ± 2.8 (≈ 2.43 µg/mL) | 975 | – |
| Cc1ccccc1C1(C(=O)NCCc2cccc(Br)c2)CCC1 [PCB-23, N-(3-bromophenethyl)-1-(o-tolyl)cyclobutane-1-carboxamide] | – | – | – | – | 1.3 ± 0.5 (≈ 0.484 µg/mL) | 391 | MIC [1, 4]: 1.3 µM (≈ 0.484 µg/mL); MIC ([1]; read-out: MIC): 1.3 µM (≈ 0.484 µg/mL) |
| O=C(NCCc1cccc(Br)c1)C1(c2ccccc2)CC(F)(F)C1 [PCB-24, N-(3-bromophenethyl)-3,3-difluoro-1-phenylcyclobutane-1-carboxamide] | – | – | – | – | 15 ± 3.7 (≈ 5.91 µg/mL) | 263 | MIC ([1]; read-out: MIC): 15 µM (≈ 5.91 µg/mL); microsomal clearance / stability (in words) (in vitro [3]): poor microsomal stability |
| O=C(NCCc1cccc(Br)c1)C1(c2ccccc2)COC1 [PCB-25, N-(3-bromophenethyl)-3-phenyloxetane-3-carboxamide] | – | – | – | – | 12 ± 2.8 (≈ 4.32 µg/mL) | 20 | MIC ([1]; read-out: MIC): 12 µM (≈ 4.32 µg/mL); microsomal clearance / stability (in words) (in vitro [3]): some improvement in clearance |
| COc1ccc(CCNC(=O)C2(c3ccc(F)cc3)CCC2)cc1Br [PCB-26, N-(3-bromo-4-methoxyphenethyl)-1-(4-fluorophenyl)cyclobutane-1-carboxamide] | – | – | – | – | 2.8 ± 0.1 (≈ 1.14 µg/mL) | 149 | MIC ([1]; read-out: MIC): 2.8 µM (≈ 1.14 µg/mL); microsomal clearance / stability (in words) (in vitro [3]): at the expense of clearance |
| COc1ccc(CCNC(=O)C2(c3ccccc3Cl)CCC2)cc1-c1ccccc1 [PCB-27, 1-(2-chlorophenyl)-N-(2-(6-methoxy-[1,1'-biphenyl]-3-yl)ethyl)cyclobutane-1-carboxamide] | – | – | – | – | 3.6 ± 1.3 (≈ 1.51 µg/mL) | 1680 | microsomal clearance / stability (in words) (in vitro [3]): much higher clearance |
| O=C(NCCc1cccc(C(F)(F)F)c1)C1(c2ccccc2)COC1 [PCB-28, 3-phenyl-N-(3-(trifluoromethyl)phenethyl)oxetane-3-carboxamide] | – | – | – | – | 9.1 ± 0.8 (≈ 3.18 µg/mL) | 13.9 | anti-tubercular activity (in words) [1]: loss in activity; microsomal clearance / stability (in words) (in vitro [3]): improved clearance |
| Cc1ccccc1C1(C(=O)NCCc2cccc(C(F)(F)F)c2)CCC1 [PCB-29, 1-(o-tolyl)-N-(3-(trifluoromethyl)phenethyl)cyclobutane-1-carboxamide] | – | – | – | – | 0.45 ± 0.01 (≈ 0.163 µg/mL) | 883 | MIC ([1]; read-out: MIC): 0.45 µM (≈ 0.163 µg/mL); microsomal clearance / stability (in words) (in vitro [3]): increase in clearance |
| O=C(NCCc1cccc(C(F)(F)F)c1)C1(c2ccc(F)cc2)CCC1 [PCB-30, 1-(4-fluorophenyl)-N-(3-(trifluoromethyl)phenethyl)cyclobutane-1-carboxamide] | – | – | – | – | 0.99 ± 0.3 (≈ 0.362 µg/mL) | 121 | anti-tubercular activity (in words) [1]: slight reduction in activity; microsomal clearance / stability (in words) (in vitro [3]): significantly improved clearance |
| C=CCc1c(C)nc(-c2ccccn2)nc1O [PDPO-1] | 99 | 96 | 23 (≈ 5.23 µg/mL) | 2.8 | – | – | – |
| Cc1nc2ccccn2c1-c1ccn(Cc2ccccc2)n1 [PPP-1] | 100 | 98 | 38 (≈ 11 µg/mL) | 4.3 | – | – | – |
| CC(C)c1ccc(-n2nnn(C(=O)N(C)C3CCOCC3)c2=O)cc1Cl [PTZ-3] | 96 | 6 | 5.2 (≈ 1.98 µg/mL) | – | – | – | IC20 (in vitro [2]): 26 µM |
| Cc1ccc(-c2nnc(C)c(N3CCCC3)n2)cc1 [PYT] | 100 | 98 | 11 (≈ 2.8 µg/mL) | 23 | – | – | IC90 [1]: 11 µM |
| CN(Cc1cn2c3ccccc3n(C)c2n1)C12CC3CC(CC(C3)C1)C2 [PZI] | 98 | 98 | 9.3 (≈ 3.24 µg/mL) | 15 | – | – | – |
| Cc1cc(NC2CCCCC2)nc(-n2nc(C)cc2C)n1 [PZP-3] | 98 | 98 | 4.5 (≈ 1.28 µg/mL) | 47 | – | – | IC90 [1]: 4.5 µM |
| CC(=O)n1nccc1-c1sc(-c2cccs2)nc1C [TPT] | 99 | 99 | 7.1 (≈ 2.05 µg/mL) | > 80 | – | – | IC90 [1]: 7.1 µM |
| CCOC(=O)c1oc2c(c1C)-c1nc(C)sc1CC2 [TZF] | 99 | 99 | 18 (≈ 4.99 µg/mL) | > 80 | – | – | – |
